Source: ChEMBL document CHEMBL5321265, “Polyketides with Anti-Inflammatory Activity from Trichoderma koningiopsis, a Rhizosphere Fungus from the Medicinal Plant Polygonum paleaceum” (J Nat Prod, 2023)

Key:
[1] = tested on: BV-2; experiment: Anti-inflammatory activity against LPS-induced mouse BV-2 cells assessed as increase in cell viability preincubated with compound for 1 hrs followed by LPS stimulation and measured after 24 hrs by CCK-8 method; assay type: functional, cell-based; conditions: dose 2.5-20 µM, time 25.0 hrs
[2] = tested on: BV-2; experiment: Anti-inflammatory activity in mouse BV-2 cells assessed as inhibition of LPS-induced NO production preincubated with compound for 1 hrs followed by LPS stimulation and measured after 24 hrs by Griess reagent based assay; assay type: functional, cell-based

IC50 [2] [µM]	SMILES	Activity [1]
3	CCCCCC[C@H]1O[C@]23O[C@H]1CC[C@@H]2C(=O)CC[C@H]3O	Dose-Dependent Effect
14	CCCCCC[C@@H]1O[C@@]23CC[C@@H](O)C(=O)[C@H]2CC[C@@H]1O3	Dose-Dependent Effect
8.9	CCCCCC[C@@H]1O[C@]23O[C@H]1CC=C2C(=O)CC[C@H]3O	Dose-Dependent Effect
